Where two headings read alike, the source gives them in different places.
Experiments:
[1] = Acid dissociation constant (pKa); type: physicochemical
[2] = test system: bone marrow; test: Bone marrow hypocellularity, pathologist assessment of haematoxylin and eosin sections; type: in vivo, rat; conditions: 25 mg/kg IV; day 5 and 9; FIG. 13
Procedure: Female nude rats were bred at AstraZeneca, and put into study at a minimum weight of 150 g. Animals were inoculated in the flank with SW620 human tumour cells and dosing started when tumours had reached 0.4-0.9 cm^3. Compounds were dosed intravenously (IV) at 5 ml/kg with either control, AZD1152 or AZD1152 hqpa nanoparticle formulation B or E. AZD1152 was dosed in tris buffer vehicle (days 1-4 IV, each dose at 25 mg/kg) and AZD1152 hqpa nanoparticle formulation was dosed in physiological saline (dosed 25 mg/kg on each of days 1 and 3 IV). At the time points indicated animals were sacrificed and tumour, blood and femur/bone marrow samples taken. Effects of the treatments on the tumour and the bone marrow were scored by a pathologist assessment of haematoxylin and eosin stained sections derived from the femur.
(§1) Rats were injected IV with BIND Placebo (0 mg/kg), or AZD1152/AZD1152 hqpa Formulation E/F1/F2 at 25 mg/kg at the times indicated and sacrificed at the times indicated.
Bone marrows samples were extracted from each animal. Firstly samples of bone marrow were processed for pathological assessment. […] Bone marrow integrity was scored by the pathologist. […]
Bone marrow samples were extracted from each animal and processed for pathological assessment. […] Bone marrow integrity was scored by the pathologist. […]

[3] = test system: bone marrow; test: Bone marrow cellularity by FACS (total nucleated cells); type: in vivo, rat; conditions: 25 mg/kg IV; FIG. 14
Procedure: as §1
Secondly bone marrow flushes taken to examine bone marrow cellularity by FACs. At termination bone marrow from each Femur was taken into 50% FBS and 50% PBS on ice. Cells were pelleted by centrifugation at 4° C. and re-suspended in PBS. Cells were pelleted again at 4° C. and re-suspended in PBS. 50 μl of LDS-751 (0.5 mg/ml in methanol) was added and cells vortexed. Finally the cells were filtered through a 50 micron filter into a FACS tube. Samples were analysed on a FACS Canto (Beckton Dickinson). A bone marrow hypocellularity is represented as a total of nucleated cells relative to untreated controls. The percentage cellularity of each bone marrow sample in each individual animal are shown. The dotted line represents the lowest percentage total nucleated cell value seen in animals receiving only vehicle (empty nanoparticle).

[4] = test system: SW620 human tumour xenograft; test: SW620 anti-tumour study in male nude mouse; type: in vivo
Procedure: Male nude mice were bred at AstraZeneca. Animals were inoculated in the flank with SW620 human tumour cells, and then randomized onto study when tumours reached approximately 0.25 cm^3. AZD1152 was dosed in tris buffer vehicle at the concentration indicated. AZD1152 hqpa nanoparticle formulation E was dosed in physiological saline. Previous pre-clinical work and methodologies with AZD1152 are published in Wilkinson et al, Clinical Cancer Research 2007 (13) 3682. […] In this study AZD1152 was dosed on day 0-3 at 25 mg/kg (total 100 mg/kg). Formulation E was dosed at a variety of different schedules as described above.

[5] = test system: histone H3 phosphorylation on Ser10 (pHH3), surrogate marker of Aurora B kinase activity; test: Tumour phospho-histone H3 (pHH3) biomarker in SW620 tumours by flow cytometry; type: in vivo, rat; conditions: 24 hrs post single dose 25 mg/kg IV
Procedure: This experiment compares the effect of Formulation E, F1 and F2 on a phospho-histone H3 phosphorylation (pHH3) in SW620 tumours. AZD1152 was included as a positive control. The activity was measured as an inhibition of histone H3 phosphorylation on Ser^10 (pHH3 as a sensitive, highly dynamic surrogate marker of Aurora B kinase activity). Average level of pHH3 positivity [%] was calculated for the cells in G2/M phase of the cell cycle for each treatment group at 24 hrs and 96 hrs post 1st dose and compared to the pHH3 level observed for the cells in G2/M cell cycle phase that were extracted from the tumours treated with BIND Placebo (referred here as 100%). Statistical significance was calculated using Student t-test assuming unequal variances (*p<0.05, **p<0.01, ***p<001, n.s. P>0.05). […]
The activity was measured as an inhibition of histone H3 phosphorylation on Ser10 (pHH3 as a sensitive, highly dynamic surrogate marker of Aurora B kinase activity). Average level of pHH3 positivity [%] was calculated for the cells in G2/M phase of the cell cycle for each treatment group at 24, 48, 72, 96 and 120 hrs post 1 dose and compared to the pHH3 level observed for the cells in G2/M cell cycle phase that were extracted from the tumours treated with BIND Placebo (referred here as 100%). […]

[6] = reported (SciFinder); cited from earlier work
[7] = reported (SciFinder); cited from earlier work; remark: listed apart in the source

Q: Which pKa1 [1] does the source give for `CCN(CCO)CCCOc1ccc2c(Nc3cc(CC(=O)Nc4cccc(F)c4)[nH]n3)ncnc2c1` [AZD1152 hqpa, 2-(3-((7-(3-(ethyl(2-hydroxyethyl)amino)propoxy)quinazolin-4-yl)amino)-1H-pyrazol-5-yl)-N-(3-fluorophenyl)acetamide] here?
A: The pKa1 was 5.7.

Q: And the pKa2 [1]?
A: Its pKa2 is 8.46.

Q: With `CCN(CCCOc1ccc2c(Nc3cc(CC(=O)Nc4cccc(F)c4)n[nH]3)ncnc2c1)CCOP(=O)(O)O` [AZD1152, 2-(ethyl(3-((4-((5-(2-((3-fluorophenyl)amino)-2-oxoethyl)-1H-pyrazol-3-yl)amino)quinazolin-7-yl)oxy)propyl)amino)ethyl dihydrogen phosphate] as the molecule, how does the “bone marrow hypocellularity score (0-4)” value [2] read?
A: The value was “large impact on bone marrow”.

Q: And the “bone marrow cellularity, total nucleated cells relative to untreated controls” value [3]?
A: The value was “large impact on bone marrow”.

Q: And the “efficacy of IV 25 mg/kg for 4 days (100 mg/kg total dose)” value ([4]; SW620 xenograft model in rat and mouse)?
A: Its value is “maximal efficacy”.

Q: What about the “dose at which maximum activity was achieved” value ([4]; total dose equivalent, SW620) of the same molecule?
A: The value was 100 mg/kg.

Q: What about the “proportion of pHH3-positive cells within G2/M phase” value ([5]; FIG. 12) of the same molecule?
A: Its value is “maximally suppressed”.

Q: And the “proportion of pHH3-positive cells within G2/M phase” value ([5]; FIG. 15)?
A: The value was “maximally suppressed”.

Q: What does the source list for `O=C(O)c1cc2ccccc2c(Cc2c(O)c(C(=O)O)cc3ccccc23)c1O` [pamoic acid, 4,4′-methylenebis[3-hydroxy-2-naphthoic acid]]?
A: pKa1 [6]: 2.67; log P [7]: 6.169

Reference: US10577351B2, “Therapeutic polymeric nanoparticles and methods of making and using same” (ASTRAZENECA AB, priority 2013, dated 2020)
